Test system: SW-620
Assay: Antiinvasive activity in human SW620 cells assessed as reduction in cell invasion at 2 uM incubated for 72 hrs by crystal violet staining based assay relative to untreated control
Assay type: functional

For C=C1[C@@H](C)[C@H]2[C@H](Cc3ccccc3)NC(=O)[C@]23[C@H](OC(C)=O)/C=C/[C@@](C)(O)C(=O)[C@@H](C)C/C=C/[C@H]3[C@@H]1O [CYTOCHALASIN D], the “fold change (FC)” value was 4.

Reference: ChEMBL document CHEMBL4616595, “Targeted suppression of metastasis regulatory transcription factor SOX2 in various cancer cell lines using a sequence-specific designer pyrrole-imidazole polyamide” (Bioorg Med Chem, 2020)
